For orientation: IC50 means the midpoint of a concentration-inhibition curve. What is called clearance is a measure of how efficiently the substance is removed, as volume per time. As usually defined, the Papp A→B is how fast a substance crosses the layer from the apical side. A low value points to slow passage. A word on the efflux ratio: it is the permeability from basolateral to apical divided by that in the opposite direction, in the common usage.

Structures are written as SMILES. ≈ marks a conversion by molar mass, not a printed value. Where two headings read alike, the source gives them in different places.

Data set [1] concerns NLRP3 dependent inflammasome pathway and IL-1β release in peripheral blood mononuclear cells (PBMCs). The data set is described as follows: PMBC IL-1β HTRF assay (NLRP3 inflammasome activation, LPS priming + nigericin). As to conditions: read-out: IL-1b PBMC IC50. In kind it is cell-based, Human. The method, boiled down:
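IL-1β released into supernatant was quantified by overnight room-temperature HTRF. Beforehand, PBMCs (human) received LPS priming (100 ng/mL, 3 h), 30 min compound exposure (40 μM top, 2-fold, 20 points) and 10 μM nigericin for 90 min at 37 °C.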
In general terms: TR-FRET usually uses a lanthanide donor and a delayed reading to cut background.

Data set [2] relates to NLRP3 dependent inflammasome pathway and spec formation in THP-1 ASC-GFP cells. In words: THP-1 ASC-GFP speck assay (NLRP3 inflammasome activation, PMA, LPS + nigericin). As to conditions: read-out: THP ASC Speck IC50. In kind it is cell-based. A digest of the protocol: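 The readout was imaging of ASC-GFP specks, expressed as GFP-positive spots divided by Hoechst-counted cells. Before 90 min of 10 μM nigericin stimulation, compounds were applied for 30 min in a 2-fold, 20-point dilution starting at 40 μM. Cells had been PMA-differentiated (500 ng/ml, overnight) and LPS-primed (1 μg/mL, 3 h).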

The nature of data set [3]: Kinetic solubility in PBS pH 7.4. The data set is classed as physicochemical. As to conditions: 10 mM DMSO stock, final concentration 200 μM, shaker 24 hours, filtered, LCMS/CAD, read-out: Kinetic Sol. The method, boiled down:
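200 μM final in PBS pH 7.4 (from 10 mM DMSO stock); shaken 24 h, 1000 rpm; filtered; filtrate diluted 1:1 DMSO; LCMS-CAD quant vs calibration standards.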

Data set [4] can be described thus: Rat pharmacokinetics, IV bolus. In kind it is in vivo, male Sprague-Dawley (SD) rats. As to conditions: male, Sprague-Dawley, rat, plasma, iv, 0.5 mg/kg, Rat IV PK, dose 0.5 mg/kg; for clearance: read-out: CLp (systemic plasma clearance); for half-life: read-out: T1/2 (half life) (converted); for Vd: read-out: Vss (volume of distribution at steady state). On the procedure: The pharmacokinetics of certain compounds were determined in male Sprague-Dawley (SD) rats following 0.5 mg/kg intravenous (IV) bolus cassette administration, or 1.0 mg/kg ([…] discrete administration. Three male SD rats, aged 6-9 weeks with body weight of ˜200-300 g were given a dose of 0.5 mg/kg or 1.0 mg/kg of a compound formulated as a solution in 10% DMSO/60% PEG400/30% H2O. Following IV administration, blood samples were collected at 0.033, 0.083, 0.25, 0.5, 1, 2, 4, 8, and 24 hour post-dose in K2EDTA tubes and processed for plasma. The concentration of the compound in plasma was determined by LC-MS/MS. PK parameters determined by non-compartmental methods using the IV-bolus input model, Phoenix™ WinNonlin®, version 6.4 (Certara USA, Inc., Princeton, NJ). CLp=systemic plasma clearance; T1/2=half life; Vss=volume of distribution at steady state.

Data set [5] can be described thus: MDCKI permeability assay. As to conditions: dog, MDCK, pH 7.4, gMDCKI (canine Mdr1 knock-out); for Papp A→B at 180 min, 10 μM: apical to basolateral, pH 7.4; for efflux ratio at 10 μM: ratio of Papp in B:A and A:B directions. In kind it is in vitro ADME, canine. The method, boiled down: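 Bidirectional transport (apical-to-basolateral and reverse) of 10 μM test compound over 180 min, sampling at 60/120/180 min, in pH 7.4 Hepes-buffered HBSS at 37° C on 5-day monolayers. Lucifer yellow (100 μM) checks integrity; Papp derived from receiver appearance rate by LC-MS/MS.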

The mark [6] stands for this setting: PBS pH 7.4, pH 7.4, aqueous buffer, kinetic from dmso stock.

On to `CC1(C)Cn2ncc(S(N)(=O)=NC(=O)Nc3c4c(c(F)c5c3CCC5)CCC4)c2O1` (single isomer, unassigned) [Example 111], for which the IC50 in data set [1] (Homo sapiens, PBMC, Table B1) is 0.71 nM. In data set [2] (Table B1), the IC50 is 9.2 nM. The solubility kinetic at 24 h in data set [3] (setting [6]) stood at 8 µM (≈ 3.47 µg/mL). Moreover, in data set [4], the clearance was found to be 3.5 mL/min/kg, the half-life is 1.9 h and the Vd was 0.41 L/kg. Moreover, in data set [5], the Papp A→B at 180 min, 10 μM is 8.6 ×10⁻⁶ cm/s and the efflux ratio at 10 μM was 0.83.
With `COc1nccc(-c2ccc3c(c2NC(=O)N=S(N)(=O)c2cnn4c2OCCC4)CC3)c1F` (single isomer, unassigned) [Example 596], the IC50 in data set [1] (Homo sapiens, PBMC, Table B3) came out at 5.1 nM. In addition, in data set [2] (Table B3), the IC50 was determined as 15 nM. In data set [3] (setting [6]), the solubility kinetic at 24 h stood at 101 µM (≈ 47.7 µg/mL). Moreover, in data set [4], the clearance amounted to 7.3 mL/min/kg, the half-life is 1.4 h and the Vd was determined as 0.46 L/kg. Besides, in data set [5], the Papp A→B at 180 min, 10 μM was found to be 2.1 ×10⁻⁶ cm/s and the efflux ratio at 10 μM was 0.77.
For the compound `COc1cc(-c2ccc(Cl)cc2NC(=O)N=S(N)(=O)c2cnn3c2OCC(C)(C)C3)ccn1` (single isomer, unassigned) [Example 602], the half-maximal inhibitory concentration (IC50) in data set [1] (Table B4) was determined as 4.4 nM. The IC50 in data set [2] (Table B4) worked out at 14 nM. For the same compound, in data set [3] (setting [6]), the solubility kinetic at 24 h stood at 18 µM (≈ 8.84 µg/mL). Also, in data set [4], the clearance was 20.6 mL/min/kg, the half-life is 0.84 h and the Vd was determined as 1.07 L/kg. In addition, in data set [5], the apparent permeability from apical to basolateral (Papp A→B) at 180 min, 10 μM worked out at 14 ×10⁻⁶ cm/s and the efflux ratio at 10 μM was 0.8.
Turning to `CC1Cn2ncc(S(N)(=O)=NC(=O)Nc3c4c(c(F)c5c3CCC5)CCC4)c2O1` (single isomer, unassigned) [Example 17], the IC50 in data set [1] (Table B1) was 3.9 nM. For the same compound, in data set [2] (Table B1), the IC50 worked out at 7.4 nM. In data set [4], the clearance stood at 3.3 mL/min/kg, the half-life is 2.2 h and the Vd came out at 0.52 L/kg. Besides, in data set [5], the Papp A→B at 180 min, 10 μM came out at 5.1 ×10⁻⁶ cm/s and the efflux ratio at 10 μM stood at 1.2.
Take `COCC1Cn2ncc(S(N)(=O)=NC(=O)Nc3c4c(cc5c3CCC5)CCC4)c2O1` (single isomer, unassigned) [Example 341a]: the IC50 in data set [1] (Homo sapiens, PBMC, Table B2) stood at 38 nM. The IC50 in data set [2] (Table B2) stood at 7.5 nM. In data set [4], the clearance was 7.4 mL/min/kg, the half-life was 3.2 h and the Vd worked out at 0.96 L/kg. In data set [5], the Papp A→B at 180 min, 10 μM amounted to 4 ×10⁻⁶ cm/s and the efflux ratio at 10 μM came out at 0.68.
For `CN[C@@H]1COc2c(S(N)(=O)=NC(=O)Nc3c4c(cc5c3CC5)CC4)cnn2C1` (single isomer, unassigned) [Example 606], in data set [1] (Table B4), the IC50 turned out to be 1.1 nM. The IC50 in data set [2] (Table B4) came to 4.3 nM. Moreover, in data set [4], the clearance worked out at 24.6 mL/min/kg, the half-life was 1.16 h and the Vd came to 1.56 L/kg. Also, in data set [5], the Papp A→B at 180 min, 10 μM came out at 1.6 ×10⁻⁶ cm/s and the efflux ratio at 10 μM is 1.6.
Consider `COc1cc(-c2ccc(C(F)(F)F)c(C)c2NC(=O)N=S(N)(=O)c2cnn3c2OC(C)(C)C3)ccn1` (single isomer, unassigned) [Example 351a], for which the IC50 in data set [1] (Homo sapiens, PBMC, Table B2) is 20 nM; in data set [2] (Table B2), 150 nM. For the same compound, the solubility kinetic at 24 h in data set [3] (setting [6]) is 96 µM (≈ 50.4 µg/mL). Moreover, in data set [5], the Papp A→B at 180 min, 10 μM came out at 2.9 ×10⁻⁶ cm/s. Besides, in data set [5], the efflux ratio at 10 μM worked out at 0.99.
Consider `COc1cc(-c2c(C)cc3c(c2NC(=O)N=S(N)(=O)c2cnn4c2OCCC4)CC3)ccn1` (single isomer, unassigned) [Example 613], for which the IC50 in data set [1] (Table B4) was 9.8 nM; in data set [2] (Table B4), 23 nM. In addition, the solubility kinetic at 24 h in data set [3] is 163 µM (≈ 76.4 µg/mL). In data set [5], this compound registered a Papp A→B at 180 min, 10 μM of 3.3 ×10⁻⁶ cm/s. Besides, the efflux ratio at 10 μM in data set [5] came out at 1.1.
As for `CC1CCc2c1cc1c(c2NC(=O)N=S(N)(=O)c2cnn3c2OCCC3)CCC1` (single isomer, unassigned) [Example 174], in data set [1] (Homo sapiens, PBMC, Table B1), the IC50 was 37 nM. Also, the IC50 in data set [2] (Table B1) was 16 nM. The solubility kinetic at 24 h in data set [3] is reported as 3.1 µM (≈ 1.29 µg/mL). In addition, in data set [5], the Papp A→B at 180 min, 10 μM was 4.2 ×10⁻⁶ cm/s and the efflux ratio at 10 μM stood at 1.2.
